Experimental data taken from US12583884B2, “3beta-(benzyloxy)-17alpha-methyl-pregn-5-en-20-one for use in the treatment of cognitive disorders” (AELIS FARMA, priority 2018, dated 2026).

Key:
[1] = system: 19 to 22-month-old C57B1/6J mice; experiment: Declarative/relational memory (radial maze flexibility test), aged mice; type: in vivo, mouse; details: 0.6 μg/ml in drinking water, chance level 50%
Experimental: The relational memory task was performed using 8-arm radial mazes described in Example 3b. Food restriction and habituation procedures were performed as described in Example 3b. Acquisition began 24 h after the last habituation session. The acquisition stage consisted in learning the positions of the food pellets within the maze. […] One arm of each pair contained reward at its end, the other arm of each pair was not baited.
Acquisition is based on a go-no go procedure. The arms are presented one by one. Subjects are expected to visit the rewarded arms faster than the non-rewarded arms. At the beginning of each daily session, the mouse was placed at the center of the maze with no access to the arms. The doors of the first arm then opened. […] The door of an arm then open immediately after (0-sec inter-trial interval). […] Each daily session contained 40 successive arm presentations (i.e. trials) organized into two distinct temporal sequences. In the first sequence (20 trials), four arms of the maze were presented alternatively (two baited and two non-baited). Consecutively, the second sequence started (20 trials); the four other arms of the maze were presented alternatively (two baited and two non-baited). […]
At each trial, the latency to visit the arm is measured. […]
Flexibility of learning was evaluated in the following conditions. […]
The percentage of correct responses for each pair was measured. […]

Ts65Dn mice = experiment: Short-term sequential object recognition, Down syndrome model; type: in vivo, mouse; details: 0.6 μg/ml in drinking water, 2 months, delays 5 and 35 min
Experimental: Mice were allowed to explore 3 different objects (A, B, C) presented one after the other and following one of the two possible sequences: A-C-C-B-A and A-B-C-C-A. In an open field, mice were exposed to object A for 5 min and then placed back into their home cage. After a delay of 5 minutes, mice were exposed to object B or C for 5 min and then placed back into their home cage, and so on. Consequently, the retention delay between two presentations of object C was of 5 minutes whereas the retention delay between two presentations of object A was of 35 minutes. The time spent exploring object A or C at the first presentation was compared with the time exploring the same object at the second presentation. This parameter is used to evaluate object recognition performances.
Before the object recognition procedure, mice were tested in the radial maze.

[2] = Depressive-like behaviors in the sucrose preference test; type: in vivo, mouse
Experimental: Sucrose preference was tested in the home cages of the mice. A sucrose solution containing 2% of sucrose (D(+) saccharose) in tap water was poured in plastic graduated bottles (volume in each bottle, 45 ml). Identical bottles were filled with tap water. All the mice were first habituated to the bottles and to the sucrose solution. One bottle containing water and one bottle containing sucrose were placed in the hopper of each home cage. […] The mice had access to the solutions from the beginning of the dark phase, at the daily peak of food and water consumption (from 7 pm to 8.30 am). The sucrose preference test was performed seven days later. Water and sucrose solutions were presented as described for habituation except that mice had access to the solutions from 12 pm to 10 pm. At each time point, the bottles were weighed, 1 g corresponding to 1 ml. The intake volume was calculated by subtracting the initial bottle weight to the final bottle weight.
15 or 30 mg/kg or of vehicle (corn oil; 5 ml/kg) was studied in the sucrose preference test in 2-month-old male C57B1/6J mice (n=7-8 per group). Rimonabant was dissolved in a vehicle containing dimethylsulfoxide (DMSO, 2%), Tween80 (2%) in injectable NaCl 0.9%. Within the same study, the effect of repeated intraperitoneal injections of rimonabant at 10 mg/kg or of vehicle alone (10 ml/kg) was studied in the sucrose preference test in 2-month-old male C57B1/6J mice (n=8 per group).

85 receptors = experiment: CEREP High-throughput binding profile (85 receptors), whole panel
Description: (§1) The CEREP High-throughput profile consists of a broad collection of 80 transmembrane and soluble receptors, ion channels and G-Protein coupled receptors.

in vivo = details: both, Sprague-Dawley, rat, 20 mg/kg
Experimental: Blood samples for plasma drug analysis were collected after the last treatment, at 5 and 24 hours post-dose. Quantification was done by LC/MS-MS chromatography.

[3] = target: T1, mutant human CB1 receptor (hCB1p.E1.49G) (Homo sapiens, UniProt P21554, E133G); experiment: THC-induced inhibition of cellular respiration in HEK-293-hCB1-Mut; type: cell-based; details: 100 nM, THC 1 μM
T1 construct: expressed in transfected cells; host or cells: HEK-293 (transient)
Experimental: In a second study (FIG. 5B), HEK-293 cells were transiently transfected either with the wild-type hCB1-expressing plasmid (HEK-293-hCB1-WT) or with the mutant hCB1p.E1.49G-expressing plasmid (HEK-293-hCB1-Mut). In this mutant the glutamate amino acid at position 1.49 was substituted by a glycine. […] After 15 min of incubation, THC (0; 1 μM, dissolved in EtOH, 0.0034%) was added in the culture dishes for 30 minutes.
Cellular respiration was measured in a calibrated oxygraph equipped with a Clark electrode. Oxygen consumption (OC) rate was used to measure cellular respiration.

[4] = target: T2, Vasoactive intestinal peptide PAC1-PACAP (Homo sapiens, UniProt P41586); experiment: CEREP binding profile: PAC1
T2 construct: CEREP (contract panel)
Description: as §1

T1 sequence (P21554 whole entry E133G): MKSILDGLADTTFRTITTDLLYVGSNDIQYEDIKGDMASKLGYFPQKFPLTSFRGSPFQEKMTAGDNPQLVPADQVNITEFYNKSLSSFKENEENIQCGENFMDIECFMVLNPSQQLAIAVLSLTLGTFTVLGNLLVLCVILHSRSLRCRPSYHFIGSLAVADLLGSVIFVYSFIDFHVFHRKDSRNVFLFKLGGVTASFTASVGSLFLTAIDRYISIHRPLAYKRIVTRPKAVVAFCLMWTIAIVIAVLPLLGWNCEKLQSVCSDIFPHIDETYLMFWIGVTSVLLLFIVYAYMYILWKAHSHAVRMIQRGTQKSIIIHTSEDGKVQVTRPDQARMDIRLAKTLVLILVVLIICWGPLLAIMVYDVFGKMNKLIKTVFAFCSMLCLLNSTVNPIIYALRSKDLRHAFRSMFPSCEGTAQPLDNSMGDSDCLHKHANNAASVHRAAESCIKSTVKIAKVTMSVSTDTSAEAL
T2 sequence (P41586 21-468): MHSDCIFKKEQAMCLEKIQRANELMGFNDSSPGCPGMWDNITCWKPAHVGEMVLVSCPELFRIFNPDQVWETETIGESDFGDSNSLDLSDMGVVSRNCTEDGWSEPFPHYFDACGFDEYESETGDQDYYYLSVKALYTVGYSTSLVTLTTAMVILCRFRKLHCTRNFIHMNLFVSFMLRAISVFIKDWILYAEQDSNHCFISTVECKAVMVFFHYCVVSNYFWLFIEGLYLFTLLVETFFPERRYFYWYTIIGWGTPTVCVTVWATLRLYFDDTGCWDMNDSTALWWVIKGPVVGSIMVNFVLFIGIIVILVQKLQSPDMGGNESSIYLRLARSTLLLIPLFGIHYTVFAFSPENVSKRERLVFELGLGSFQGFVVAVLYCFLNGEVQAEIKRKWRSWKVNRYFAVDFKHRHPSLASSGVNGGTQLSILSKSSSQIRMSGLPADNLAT

inhibition at 10 µM [4]	Compound	Correct responses in the flexibility test (choice accuracy) [1]	Exploration of the familiar object (short-term sequential object recognition) (Ts65Dn mice)	Sucrose intake ([2]; 0.05, 5, 15, 30 mg/kg per os once a day, 28 days)	Effect: increase in depression-related behaviors (repeated administration) ([2]; male mice, highest dose tested 30 mg/kg)	Modification of the binding of the 85 receptors (85 receptors; 10 μM)	IC50 (85 receptors; CEREP High-throughput binding profile (85 receptors), read-out: ID50 (the source's name))	concentration at 5 h (in vivo)	concentration at 24 h (in vivo)	Effect on THC-induced decrease in cellular respiration [3]
	CC(=O)[C@@]1(C)CC[C@H]2[C@@H]3CC=C4C[C@@H](OCc5ccccc5)CC[C@]4(C)[C@H]3CC[C@@]21C [3Bn17MeP, 3β-benzyloxy, 17α-methyl-pregn-5-en-20-one]	more than 70%	explored significantly less the familiar object after 5 and 35 minutes	had no effect on sucrose intake	No	does not modify the binding of any of the 85 receptors	> 10 µM	4650 ng/mL	974 ng/mL	insensitive
-25%	CC(=O)[C@H]1CC[C@H]2[C@@H]3CC=C4C[C@@H](O)CC[C@]4(C)[C@H]3CC[C@]12C [pregnenolone, reference compound]									
